According to article PMC7481290, “Halogenation as a tool to tune antimicrobial activity of peptoids” (Scientific Reports, 2020):
Converted amounts (≈) assume the structure as drawn. Non-standard residues stand in square brackets, D forms with d. Residues, ends and D or L forms follow the SMILES beside them. N(4-Br-benzyl)Gly = O=C(O)CNCc1ccc(Br)cc1; NBzl(4-I)Gly = O=C(O)CNCc1ccc(I)cc1; Nphe = O=C(O)CNCc1ccccc1; Nlys = NCCCCNCC(=O)O

Key:
[1] = system: selected bacterial strains (S. aureus, S. epidermidis, E. coli, P. aeruginosa); assay type: cell-based; details: for MICs, range across strains: range matches Gram-positive strains of Table 1
Protocol: All 36 peptoids were tested against seven bacterial strains: five Gram-positive (Staphylococcus aureus ATCC 25923 and ATCC 29213, methicillin-resistant Staphylococcus aureus USA 300, methicillin-resistant Staphylococcus epidermidis ET-024 and ATCC 51625) and two Gram-negative (Escherichia coli ATCC 25922, Pseudomonas aeruginosa PA01) (Table 1).
Bacterial growth inhibition was determined by using broth microdilution according to the Clinical Laboratory Standards Institute[43]. The antibacterial activity of peptoids was tested against S. aureus ATCC 25923, ATCC29213, and methicillin resistant S. aureus USA 300, methicillin resistant S. epidermidis ATCC 51625, a biofilm producing methicillin resistant S. epidermidis ET-024[44], P. aeruginosa Pa01 (H103), and E. coli ATCC 25922. Bacteria, grown on agar plates for 18 h at 37 °C, were diluted to ∼1 × 10^8 CFU/mL in Mueller‐Hinton Broth II (MHB II). Twofold serial dilutions of peptoids in MHB II were inoculated with bacteria to achieve a final concentration of 5 × 10^5 CFU/mL in polypropylene 96 U‐well microtiter plates (Corning 3,897; ThermoFisher Scientific, Roskilde), followed by incubation at 37 °C in ambient air for 18 h. The MIC values were determined as the lowest concentration showing no visible bacterial growth. Experiments were performed twice (in technical triplicates) on 2 different days.

[2] = system: P. aeruginosa PA01 (H103); assay type: cell-based, Pseudomonas aeruginosa; details: H103, 18 h
Outline: (§1)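 Broth microdilution per CLSI in MHB II, final inoculum 5 × 10^5 CFU/mL, with twofold peptoid dilutions. Incubation was 18 h at 37 °C in ambient air. MIC was taken as the lowest concentration without visible growth, from two experiments on different days in technical triplicate.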

E. coli ATCC 25922 = assay type: cell-based, Escherichia coli; details: ATCC 25922, 18 h
Outline: as §1

[3] = system: Methicillin-resistant S. epidermidis ATCC 51625; assay type: cell-based, Staphylococcus epidermidis; details: ATCC 51625, 18 h
Outline: as §1

[4] = system: Methicillin-resistant S. epidermidis ET-024; assay type: cell-based, Staphylococcus epidermidis; details: for Minimal inhibitory concentration MRSE^d: Methicillin-resistant ET-024, 18 h
Outline: as §1

[5] = Critical aggregation concentration from SAXS fit analysis; assay type: physicochemical
Protocol: SAXS experiments of the 10-mer peptoids were performed at the automated BM29 bioSAXS beamline at the European Synchrotron Radiation Facility (ESRF) in Grenoble, France[45]. The data was obtained using an energy of 12.5 keV and a detector distance of 2.87 m, covering a q range ( q=4πsin(θ/2)/λ ), where θ is the scattering angle and λ is the X-ray wavelength) of about 0.0047 to 0.5 Å^−1. The data set was calibrated to an absolute intensity scale using water as a primary standard. 40 µL samples were run through a capillary using the flow mode of the automated sample changer. SAXS data was collected in ten successive frames of 0.5 s each to monitor radiation damage and the data reduction was done using the standard tool at BM29[47].
The SAXS experiments on the fully iodinated 6-, 8-, and 12-mers to determine the CAC of the compounds were performed using a Bruker NANOSTAR equipped with a microfocus X-ray source (IμS Cu, Incoatec, Germany) and a VÅNTEC-2000 detector. Raw scattering data was calibrated to absolute intensity scale using water as a primary standard and radially averaged in order to obtain the 1D scattered intensity profile as a function of the scattering vector, with a wavelength of 1.54 Å.
The modelling fit analysis of the scattering data is explained in detail in the supplementary information.

[6] = system: Methicillin-resistant S. aureus USA 300; assay type: cell-based, Staphylococcus aureus; details: USA 300, 18 h
Outline: as §1

S. aureus ATCC 25923 = assay type: cell-based, Staphylococcus aureus; details: for Minimal inhibitory concentration SA^a: ATCC 25923, 18 h
Outline: as §1

S. aureus ATCC 29213 = assay type: cell-based, Staphylococcus aureus; details: ATCC 29213, 18 h
Outline: as §1

Row | Structure (SMILES) | antimicrobial potency against the selected bacterial strains, in words [1] | Minimal inhibitory concentration PA^g [2] [µg/mL] | Minimal inhibitory concentration EC^f (E. coli ATCC 25922) [µg/mL] | Minimal inhibitory concentration MRSE^e [3] [µg/mL] | Minimal inhibitory concentration MRSE^d [4] [µg/mL] | critical aggregation concentration (CAC) [5] [mg/mL] | Minimal inhibitory concentration MRSA^c [6] [µg/mL] | Minimal inhibitory concentration SA^a (S. aureus ATCC 25923) [µg/mL] | Minimal inhibitory concentration SA^b (S. aureus ATCC 29213) [µg/mL] | MICs, range across strains [1] [µg/mL] | fold increase of activity against MRSE ([4]; versus non-halogenated control of same length, values match ET-024) [fold] | fold increase of activity against S. aureus (S. aureus ATCC 25923; versus non-halogenated control of same length) [fold]
1 | NCCCCNCC(=O)N(CC(=O)N(CCCCN)CC(=O)N(CC(=O)N(CCCCN)CC(=O)N(CC(=O)N(CCCCN)CC(=O)N(CC(=O)N(CCCCN)CC(=O)N(CC(N)=O)Cc1ccccc1)Cc1ccccc1)Cc1ccccc1)Cc1ccccc1)Cc1ccccc1 [Compound 19] (H-[Nlys][Nphe][Nlys][Nphe][Nlys][Nphe][Nlys][Nphe][Nlys][Nphe]-NH2) | inactive | 512 (≈ 367 µM) | 256 (≈ 184 µM) | 128 (≈ 91.8 µM) | 128 (≈ 91.8 µM) | > 5 | > 512 | > 512 | > 512 | – | – | –
2 | NCCCCNCC(=O)N(CC(=O)N(CCCCN)CC(=O)N(CC(=O)N(CCCCN)CC(=O)N(CC(=O)N(CCCCN)CC(=O)N(CC(=O)N(CCCCN)CC(=O)N(CC(N)=O)Cc1ccc(Br)cc1)Cc1ccc(Br)cc1)Cc1ccc(Br)cc1)Cc1ccc(Br)cc1)Cc1ccc(Br)cc1 [Compound 22] (H-[Nlys][N(4-Br-benzyl)Gly][Nlys][N(4-Br-benzyl)Gly][Nlys][N(4-Br-benzyl)Gly][Nlys][N(4-Br-benzyl)Gly][Nlys][N(4-Br-benzyl)Gly]-NH2) | – | > 512 | 64 (≈ 35.8 µM) | 1 (≈ 0.559 µM) | 1 (≈ 0.559 µM) | 2.3 | 4 (≈ 2.24 µM) | 2 (≈ 1.12 µM) | 2 (≈ 1.12 µM) | 1 to 4 | 128 | > 256
3 | NCCCCNCC(=O)N(CC(=O)N(CCCCN)CC(=O)N(CC(=O)N(CCCCN)CC(=O)N(CC(=O)N(CCCCN)CC(=O)N(CC(=O)N(CCCCN)CC(=O)N(CC(N)=O)Cc1ccc(I)cc1)Cc1ccc(I)cc1)Cc1ccc(I)cc1)Cc1ccc(I)cc1)Cc1ccc(I)cc1 [Compound 23] (H-[Nlys][NBzl(4-I)Gly][Nlys][NBzl(4-I)Gly][Nlys][NBzl(4-I)Gly][Nlys][NBzl(4-I)Gly][Nlys][NBzl(4-I)Gly]-NH2) | the activity was lost | > 512 | > 512 | 8 (≈ 3.95 µM) | 4 (≈ 1.98 µM) | 0.4 | 16 (≈ 7.91 µM) | 32 (≈ 15.8 µM) | 32 (≈ 15.8 µM) | – | – | –
4 | NCCCCNCC(=O)N(CC(=O)N(CCCCN)CC(=O)N(CC(=O)N(CCCCN)CC(=O)N(CC(=O)N(CCCCN)CC(=O)N(CC(=O)N(CCCCN)CC(=O)N(CC(N)=O)Cc1ccc(Br)cc1)Cc1ccccc1)Cc1ccc(Br)cc1)Cc1ccccc1)Cc1ccc(Br)cc1 [Compound 26] (H-[Nlys][N(4-Br-benzyl)Gly][Nlys][Nphe][Nlys][N(4-Br-benzyl)Gly][Nlys][Nphe][Nlys][N(4-Br-benzyl)Gly]-NH2) | – | 512 (≈ 314 µM) | 256 (≈ 157 µM) | 1 (≈ 0.613 µM) | 1 (≈ 0.613 µM) | > 5 | 8 (≈ 4.91 µM) | 4 (≈ 2.45 µM) | 4 (≈ 2.45 µM) | 1 to 8 | – | –
5 | NCCCCNCC(=O)N(CC(=O)N(CCCCN)CC(=O)N(CC(=O)N(CCCCN)CC(=O)N(CC(=O)N(CCCCN)CC(=O)N(CC(=O)N(CCCCN)CC(=O)N(CC(=O)N(CCCCN)CC(=O)N(CC(N)=O)Cc1ccccc1)Cc1ccccc1)Cc1ccccc1)Cc1ccccc1)Cc1ccccc1)Cc1ccccc1 [Compound 28] (H-[Nlys][Nphe][Nlys][Nphe][Nlys][Nphe][Nlys][Nphe][Nlys][Nphe][Nlys][Nphe]-NH2) | inactive | 128 (≈ 76.7 µM) | 128 (≈ 76.7 µM) | 32 (≈ 19.2 µM) | 64 (≈ 38.3 µM) | – | 512 (≈ 307 µM) | > 512 | 512 (≈ 307 µM) | – | – | –
6 | NCCCCNCC(=O)N(CC(=O)N(CCCCN)CC(=O)N(CC(=O)N(CCCCN)CC(=O)N(CC(=O)N(CCCCN)CC(=O)N(CC(=O)N(CCCCN)CC(=O)N(CC(=O)N(CCCCN)CC(=O)N(CC(N)=O)Cc1ccc(I)cc1)Cc1ccc(I)cc1)Cc1ccc(I)cc1)Cc1ccc(I)cc1)Cc1ccc(I)cc1)Cc1ccc(I)cc1 [Compound 32] (H-[Nlys][NBzl(4-I)Gly][Nlys][NBzl(4-I)Gly][Nlys][NBzl(4-I)Gly][Nlys][NBzl(4-I)Gly][Nlys][NBzl(4-I)Gly][Nlys][NBzl(4-I)Gly]-NH2) | the activity was lost | > 512 | > 512 | 16 (≈ 6.6 µM) | 32 (≈ 13.2 µM) | 0.4 | 32 (≈ 13.2 µM) | 64 (≈ 26.4 µM) | 128 (≈ 52.8 µM) | – | – | –
